The results in this text go back to patent publication US7511065B2, “Mixed lineage kinase modulators” (Eli Lilly and Company, priority 2002, dated 2009).

The structures appear in SMILES notation.

T1 sequence (Q9NYL2 1-455 isoform Q9NYL2-2): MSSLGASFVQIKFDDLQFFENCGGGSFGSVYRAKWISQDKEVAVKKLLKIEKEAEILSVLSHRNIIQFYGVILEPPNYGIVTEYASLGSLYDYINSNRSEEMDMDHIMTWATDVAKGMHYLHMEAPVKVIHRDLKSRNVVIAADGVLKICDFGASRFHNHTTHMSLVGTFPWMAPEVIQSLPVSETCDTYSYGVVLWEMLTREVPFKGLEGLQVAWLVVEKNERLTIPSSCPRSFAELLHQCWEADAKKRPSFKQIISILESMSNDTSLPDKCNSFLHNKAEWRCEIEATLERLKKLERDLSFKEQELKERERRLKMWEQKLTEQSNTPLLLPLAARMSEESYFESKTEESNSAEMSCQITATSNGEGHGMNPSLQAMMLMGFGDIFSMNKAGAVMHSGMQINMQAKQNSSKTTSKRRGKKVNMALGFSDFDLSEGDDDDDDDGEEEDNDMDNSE

This test has as its target T1, MLK-7 (Homo sapiens, UniProt Q9NYL2).
T1 construct: GST; His tag; made in house; host or cells: Sf9 insect cells (baculovirus, pVL1392)
The test can be described thus: In vitro assay of purified MLK-7 kinase activity (33P transfer from ATP to myelin basic protein). Type of test: biochemical. The note with it: recombinant GST-tagged MLK-7 at 1 nm, 30 uM ATP, 5 uM MBP substrate, 2 hours room temperature; read-out: MLK7 IC50. From the text: In Vitro Assay of Purified Mixed Lineage Kinase 7 (MLK-7) Activity:
Briefly, recombinant glutathione-s-transferase (GST) tagged MLK-7 is expressed in Sf9 cells using a recombinant baculovirus created using baculovirus transfer vector pVL1392 modified to contain a GST and histidine tag. The recombinant protein is purified over a glutathione column and subsequently used for in vitro kinase assays with myelin basic protein (MBP) as the substrate for phosphorylation. The in vitro kinase reaction is run with recombinant MLK-7 at 1 nm and various concentrations of test compound in a reaction mixture containing 2 mM DTT, 30 uM ATP, 5 mM MgCl2, 5 uM MBP, 4% DMSO, 5 uCi 33P in 44 mM HEPES, (pH 7.4). The reaction is carried out for 2 hours at room temperature and then stopped by the addition of phosphoric acid to 5.5%. The phosphorylated MBP is collected on a filter and radioactivity associated with the membrane measured using a scintillation counter. Inhibitors are identified by the ability to reduce the transfer of radioactive phosphate from ATP to MBP compared to controls run without test compound.
IC50 values, defined as the concentration of test compound required to decrease the transfer of radioactive phosphate from ATP to MBP by 50%, are then determined. Ki values (which refers to the dissociation constant of an enzyme-antagonist complex and serves as an index of ligand binding) for each respective test compound can also be calculated by application of the Cheng-Prusoff equation as described in Cheng et al., Relationship Between The Inhibition Constant (Ki) and The Concentration of Inhibitor Which Causes 50% Inhibition (IC50) of an Enzymatic Reaction, Biochem. Pharmacol., 22: […]; (1973).
Representative compounds of the present invention have an IC50 in the MLK-7 kinase assay of ≦10,000 nM Table I (see infra.) provides IC50 data from the afore mentioned MLK-7 kinase assay for a representative sample of the exemplified compounds of the present invention.
With `N#Cc1ccc(-c2ccc3c(-c4c(-c5ccccn5)nn5c4CCC5)ccnc3c2)cc1` [Example 26, 4-[4-(2-Pyridin-2-yl-5,6-dihydro-4H-pyrrolo[1,2-b]pyrazol-3-yl)quinolin-7-yl]benzonitrile Trifluroacetic Acid], the IC50 was at most 100 nM. With `c1ccc(-c2nn3c(c2-c2ccnc4cc(-c5ccc6[nH]ccc6c5)ccc24)CCC3)nc1` [Example 27, 7-(1H-Indol-5-yl)-4-(2-pyridin-2-yl-5,6-dihydro-4H-pyrrolo[1,2-b]pyrazol-3-yl)quinoline Ditrifluoroacetic Acid], the IC50 is at most 100 nM. As for `CC(=O)c1ccc(-c2ccc3c(-c4c(-c5ccccn5)nn5c4CCC5)ccnc3c2)cc1` [Example 28, 1-{4-[4-(2-Pyridin-2-yl-5,6-dihydro-4H-pyrrolo[1,2-b]pyrazol-3-yl)quinolin-7-yl]phenyl}ethanone Trifluoroacetic Acid], the IC50 was at most 100 nM. On to `O=C(O)CCc1ccc(-c2ccc3c(-c4c(-c5ccccn5)nn5c4CCC5)ccnc3c2)cc1` [Example 30, 3-{4-[4-(2-Pyridin-2-yl-5,6-dihydro-4H-pyrrolo[1,2-b]pyrazol-3-yl)quinolin-7-yl]phenyl}propionic Acid Trifluoroacetic Acid], for which the IC50 is at most 100 nM. In the case of `COc1ccc(-c2ccc3c(-c4c(-c5ccccn5)nn5c4CCC5)ccnc3c2)cc1C` [Example 32, 7-(4-Methoxy-3-methylphenyl)-4-(2-Pyridin-2-yl-5,6-dihydro-4H-pyrrolo[1,2-b]pyrazol-3-yl)quinoline Trifluoroacetic Acid], the IC50 is at most 1000 nM. For the molecule `Cc1ccc(-c2ccc3c(-c4c(-c5ccccn5)nn5c4CCC5)ccnc3c2)cc1N` [Example 33, 2-Methyl-5-[4-(2-Pyridin-2-yl-5,6-dihydro-4H-pyrrolo[1,2-b]pyrazol-3-yl)quinolin-7-yl]phenylamine Ditrifluoroacetic Acid], the IC50 was at most 100 nM.

`c1ccc(-c2nn3c(c2-c2ccnc4cc(-c5ccncc5)ccc24)CCC3)nc1` [Example 34, 7-Pyridin-4-yl-4-(2-Pyridin-2-yl-5,6-dihydro-4H-pyrrolo[1,2-b]pyrazol-3-yl)quinoline Ditrifluoroacetic Acid]: the IC50 is at most 100 nM. For `c1ccc(-c2nn3c(c2-c2ccnc4cc(-c5cccnc5)ccc24)CCC3)nc1` [Example 35, 7-Pyridin-3-yl-4-(2-Pyridin-2-yl-5,6-dihydro-4H-pyrrolo[1,2-b]pyrazol-3-yl)quinoline Ditrifluoroacetic Acid] the value was at most 100 nM; for `O=[N+]([O-])c1ccccc1-c1ccc2c(-c3c(-c4ccccn4)nn4c3CCC4)ccnc2c1` [Example 36, 7-(2-Nitrophenyl)-4-(2-pyridin-2-yl-5,6-dihydro-4H-pyrrolo[1,2-b]pyrazol-3-yl)quinoline Trifluoroacetic Acid], at most 1000 nM; for `CC(=O)Nc1cccc(-c2ccc3c(-c4c(-c5ccccn5)nn5c4CCC5)ccnc3c2)c1` [Example 37, N-{3-[4-(2-pyridin-2-yl-5,6-dihydro-4H-pyrrolo[1,2-b]pyrazol-3-yl)quinolin-7-yl]phenyl}-acetamide Trifluoroacetic Acid], at most 100 nM.

On to `C[S+]([O-])c1ccc(-c2ccc3c(-c4c(-c5ccccn5)nn5c4CCC5)ccnc3c2)cc1` (stereo not shown) [Example 38, 7-(4-Methanesulfinylphenyl)-4-(2-pyridin-2-yl-5,6-dihydro-4H-pyrrolo[1,2-b]pyrazol-3-yl)quinoline Trifluoroacetic Acid], for which the IC50 was at most 100 nM. For the molecule `c1ccc(-c2nn3c(c2-c2ccnc4cc(-c5ccc6c(c5)OCO6)ccc24)CCC3)nc1` [Example 40, 7-Benzo[1,3]dioxol-5-yl-4-(2-pyridin-2-yl-5,6-dihydro-4H-pyrrolo[1,2-b]pyrazol-3-yl)quinoline Trifluoroacetic Acid], the IC50 was at most 100 nM. For `O=C(O)c1ccc(-c2ccc3c(-c4c(-c5ccccn5)nn5c4CCC5)ccnc3c2)cc1` [Example 41, 4-[4-(2-pyridin-2-yl-5,6-dihydro-4H-pyrrolo[1,2-b]pyrazol-3-yl)quinolin-7-yl]benzoic Acid Trifluoroacetic Acid] the value was at most 100 nM; for `FC(F)(F)c1cc(-c2ccc3c(-c4c(-c5ccccn5)nn5c4CCC5)ccnc3c2)cc(C(F)(F)F)c1` [Example 42, 7-(3,5-Bis-trifluromethylphenyl)-4-(2-pyridin-2-yl-5,6-dihydro-4H-pyrrolo[1,2-b]pyrazol-3-yl)quinoline Trifluoroacetic Acid], at most 10000 nM. For `O=C(O)c1cccc(-c2ccc3c(-c4c(-c5ccccn5)nn5c4CCC5)ccnc3c2)c1` [Example 43, 3-[4-(2-pyridin-2-yl-5,6-dihydro-4H-pyrrolo[1,2-b]pyrazol-3-yl)quinolin-7-yl]benzoic Acid Trifluoroacetic Acid], the IC50 is at most 100 nM. For `O=C(O)c1ccccc1-c1ccc2c(-c3c(-c4ccccn4)nn4c3CCC4)ccnc2c1` [Example 44, 2-[4-(2-pyridin-2-yl-5,6-dihydro-4H-pyrrolo[1,2-b]pyrazol-3-yl)quinolin-7-yl]benzoic Acid Trifluoroacetic Acid] the value was at most 10000 nM. For the molecule `CC(C)Cc1ccc(-c2ccc3c(-c4c(-c5ccccn5)nn5c4CCC5)ccnc3c2)cc1` [Example 45, 7-(4-Isobutylphenyl)-4-(2-pyridin-2-yl-5,6-dihydro-4H-pyrrolo[1,2-b]pyrazol-3-yl)quinoline Trifluoroacetic Acid], the IC50 was at most 1000 nM. For `O=C(O)COc1ccc(-c2ccc3c(-c4c(-c5ccccn5)nn5c4CCC5)ccnc3c2)cc1` [Example 46, {4-[4-(2-pyridin-2-yl-5,6-dihydro-4H-pyrrolo[1,2-b]pyrazol-3-yl)quinolin-7-yl]phenoxy}acetic Acid Trifluoroacetic Acid] the value was at most 100 nM. For `c1ccc(-c2nn3c(c2-c2ccnc4cc(-c5cc6ccccc6s5)ccc24)CCC3)nc1` [Example 47, 7-Benzo[b]thiophen-2-yl-4-(2-pyridin-2-yl-5,6-dihydro-4H-pyrrolo[1,2-b]pyrazol-3-yl)quinoline Trifluoroacetic Acid] the value was at most 1000 nM.

With `c1ccc(-c2nn3c(c2-c2ccnc4cc(-c5cc6ccccc6o5)ccc24)CCC3)nc1` [Example 48, 7-Benzofuran-2-yl-4-(2-pyridin-2-yl-5,6-dihydro-4H-pyrrolo[1,2-b]pyrazol-3-yl)quinoline Trifluoroacetic Acid], the IC50 was at most 100 nM. For `c1ccc(-c2nn3c(c2-c2ccnc4cc(-c5ccsc5)ccc24)CCC3)nc1` [Example 50, 4-(2-pyridin-2-yl-5,6-dihydro-4H-pyrrolo[1,2-b]pyrazol-3-yl)-7-thiophen-3-yl-quinoline Trifluoroacetic Acid], the IC50 is at most 100 nM. The value for `c1ccc(-c2nn3c(c2-c2ccnc4cc(-c5ccoc5)ccc24)CCC3)nc1` [Example 51, 7-Furan-3-yl-4-(2-pyridin-2-yl-5,6-dihydro-4H-pyrrolo[1,2-b]pyrazol-3-yl)quinoline Trifluoroacetic Acid] was at most 100 nM; that for `c1ccc(-c2nn3c(c2-c2ccnc4cc(-c5ccc(C6CCCCC6)cc5)ccc24)CCC3)nc1` [Example 53, 7-(4-Cyclohexyl-phenyl)-4-(2-pyridin-2-yl-5,6-dihydro-4H-pyrrolo[1,2-b]pyrazol-3-yl)-quinoline Trifluoroacetic Acid] was at most 10000 nM; that for `Clc1ccc(-c2ccc3c(-c4c(-c5ccccn5)nn5c4CCC5)ccnc3c2)cc1Cl` [Example 55, 7-(3,4-Dichlorophenyl)-4-(2-pyridin-2-yl-5,6-dihydro-4H-pyrrolo[1,2-b]pyrazol-3-yl)-quinoline] was at most 1000 nM. The value for `Cc1cccc(-c2nn3c(c2-c2ccnc4cc(-c5ccc(C(=O)O)cc5)ccc24)CCC3)n1` [Example 57, 4-{4-[2-(6-Methyl-pyridin-2-yl)-5,6-dihydro-4H-pyrrolo[1,2-b]pyrazol-3-yl]-quinolin-7-yl}-benzoic acid] was at most 100 nM; that for `Cc1cccc(-c2nn3c(c2-c2ccnc4cc(-c5ccc(CCC(=O)O)cc5)ccc24)CCC3)n1` [Example 58, 3-(4-{4-[2-(6-Methyl-pyridin-2-yl)-5,6-dihydro-4H-pyrrolo[1,2-b]pyrazol-3-yl]-quinolin-7-yl}-phenyl)-propionic acid] was at most 100 nM; that for `Cc1cccc(-c2nn3c(c2-c2ccnc4cc(-c5ccc(F)cc5)ccc24)CCC3)n1` [Example 59, 7-(4-Fluoro-phenyl)-4-[2-(6-methyl-pyridin-2-yl)-5,6-dihydro-4H-pyrrolo[1,2-b]pyrazol-3-yl]-quinoline] was at most 100 nM. `COc1ccc(-c2ccc3c(-c4c(-c5cccc(C)n5)nn5c4CCC5)ccnc3c2)cc1` [Example 60, 7-(4-Methoxy-phenyl)-4-[2-(6-methyl-pyridin-2-yl)-5,6-dihydro-4H-pyrrolo[1,2-b]pyrazol-3-yl]-quinoline]: the IC50 was at most 100 nM.

For orientation: IC50 means the concentration needed to halve the response being measured.
